{"source": "patent US20100239639A1", "about": "“MEDICATED PATCH” (HISAMITSU PHARMACEUTICAL CO., INC., priority 2007, published 2010)", "assay": "Solubility test of BM-DBM", "format": "physicochemical", "conditions": "1 g BM-DBM mixed with 2 g additive, dissolved at 140° C., cooled to room temperature for 30 min", "method": "1 g of BM-DBM was mixed with 2 g of an additive, dissolved at 140° C., then the mixture was cooled to room temperature for 30 min and its state was observed.", "data": [{"smiles": "CCCCCCCCCCCC(=O)OCCCCCC", "note": "[Hexyl laurate]", "values": [{"measurement": "Solubility of BM-DBM", "value": "◯"}, {"measurement": "solubility of BM-DBM (in words)", "value": "particularly good solubility of BM-DBM"}]}]}
